Reference: patent publication US20230331655A1, “HYDROXYN[…] AND METHODS OF USE THEREOF” (UNIVERSITY OF MARYLAND, BALTIMORE, priority 2020, published 2023)
Where two headings read alike, the source gives them in different places.

Test: pharmacokinetics in plasma and brain after intraperitoneal administration (UPLC-MS/MS)
Type: in vivo, mouse
Set-up: key to Brain Concentration over time, sex-dependent difference / Plasma Concentration over time, sex-dependent difference: F, female; M, male; NS, not statistically different
Conditions: for Kp / half-life / Tmax: CD-1, mouse, ip; for Kp: brain and plasma; for half-life: terminal half-life; for Brain Concentration over time, sex-dependent difference / Plasma Concentration over time, sex-dependent difference / Brain Total exposure (AUC), sex-dependent difference / Plasma Total exposure (AUC), sex-dependent difference: female vs male mice; for Brain Concentration over time, sex-dependent difference / Plasma Concentration over time, sex-dependent difference: ANOVA, Holm-Šídák post-hoc; for Brain Total exposure (AUC), sex-dependent difference / Plasma Total exposure (AUC), sex-dependent difference: t-test; for Tmax: earliest sampling time 10 min
Protocol: Male and female CD-1 mice (Charles Rivers Laboratories, Raleigh, NC, USA), 8-11 weeks old at the time of testing, were habituated to the University of Maryland (Baltimore, MD, USA) animal facility for at least one week prior to testing. Mice were group housed 4-5 per cage with a constant 12-hour light cycle (lights on/off at 07:00/19:00). Food and water were available ad libitum. All experiments were performed during the light phase. All animal studies were approved by the University of Maryland School of Medicine Institutional Animal Care and Use Committee and conducted in accordance with the National Institutes of Health Guide for the Care and Use of Laboratory Animals.
(2R,6R)-HNK hydrochloride, (2S,6S)-HNK hydrochloride, (2R,6S)-HNK, (2S,6R)-HNK, (2R,5R)-HNK, (2S,5S)-HNK, (2R,5S)-HNK, (2S,5R)-HNK, (2R,4R)-HNK, (2S,4S)-HNK, (2R,4S)-HNK, and (2S,4R)-HNK hydrochloride were synthesized at the National Center for Advancing Translation Sciences (National Institutes of Health, Rockville, MD, USA) using methods previously described in Morris et al., Org Lett 17:4572-4575 (2017), which is incorporated by reference herein in its entirety. (5R)-methyl-(2R,6R)-HNK was obtained from Organix Inc. (Woburn, MA, USA) or from the National Center for Advancing Translational Sciences (Rockville, MD, USA); synthesis and characterization are described in the Supplemental Information. All compounds were dissolved in 20% (w/v) cyclodextrin (Sigma Aldrich, USA) in saline and administered intraperitoneally (i.p.) in a volume of 7.5 ml/kg.
At 10 min (0.167 h), 30 min (0.5 h), 1 h, 2 h, and 4 h post-treatment, mice were deeply anesthetized (3.5% isoflurane for approximately 2 min). Trunk blood was collected into 1.5-ml polypropylene tubes containing 30 μl of disodium EDTA (0.5 M, pH 8.0) and kept on ice until plasma collection (<30 min). Brains were then removed, flash-frozen in isopentane, and stored at −80° C. until analysis. Blood was centrifuged at 8000×g for 6 min at 4° C. to obtain plasma. Plasma was collected into clean microcentrifuge tubes and stored at −80° C. until analysis.
Ultra-performance liquid chromatography-tandem mass spectrometry (UPLC-MS/MS) methods were developed and optimized to determine the concentration of each HNK in mouse plasma and brain samples following systemic administration. Mass spectrometric analysis was performed on a Waters Xevo TQ-S triple quadrupole instrument using electrospray ionization in positive mode with the selected reaction monitoring. The separation of HNKs from endogenous components was performed on a Waters Acquity UPLC with 0.5 ml/min flow rate and gradient elution. The mobile phase A and B were 0.1% formic acid in water and 0.1% formic acid in acetonitrile, respectively. Plasma and brain concentrations of (2R,6R)-, (2S,6S)-, (2R,4S)-, and (2S,4R)-HNK were determined by hydrophilic interaction liquid chromatography-tandem mass spectrometry (HILIC UPLC-MS/MS) using a BEH amide column (1.7μ, 2.1×50 mm). Plasma and brain concentrations of (2R,6S)-, (2S,6R)-, (2R,5R)- (2S,5S)-, (2R,5S)-, (2S,5R)-, (2R,4R)-, and (2S,4S)-HNK; and (5R)-methyl-(2R,6R)-HNK were determined by reversed phase UPLC-MS/MS based upon a previously described protocol with several modifications using a BEH C18 column ([…], 2.1×50 mm). See Moaddel et al., Talanta 82:1892-1904 (2010), and Zanos et al., Nature 533:481-486 ([…]), both of which are incorporated by reference herein in their entireties.
The gradient for HILIC UPLC method was: 0-0.2 min 98% B; 0.2-1.4 min 98% to 35% B; 1.4-1.8 min 35% to 10% B, 1.9-2.4 min 98% B. The gradient for BEH Cis UPLC method was: 0-0.2 min 1% B; 0.2-1.4 min 1% to 35% B; 1.4-1.8 min 35% to 98% B, 1.8-2.2 min 98% B, 2.3 min 1% B. The analytical run time of the UPLC methods was 2.5 min. The calibration standards and quality control samples were prepared in blank mouse plasma and brain homogenate. Calibration standards ranged from 5.0-5000 ng/ml. […]

[1] = female mice, i.p. 5 mg/kg, read-out: B:P ratio (brain to plasma AUC ratio)
[2] = male mice, i.p. 5 mg/kg, read-out: B:P ratio (brain to plasma AUC ratio)
[3] = brain, female mice, i.p. 5 mg/kg, read-out: t1/2 Brain (converted)
[4] = brain, male mice, i.p. 5 mg/kg, read-out: t1/2 Brain (converted)
[5] = plasma, female mice, i.p. 5 mg/kg, read-out: t1/2 Plasma (converted)
[6] = plasma, male mice, i.p. 5 mg/kg, read-out: t1/2 Plasma (converted)
[7] = male mice, equivalent systemic doses

Structure (SMILES): N[C@@]1(c2ccccc2Cl)CCC[C@@H](O)C1=O [(2R,6R)-HNK, (2R,6R)-hydroxynorketamine]
- Kp [1]: 1.3
- Kp [2]: 1.3
- half-life [3]: 36 min
- half-life [4]: 36 min
- half-life [5]: 36 min
- half-life [6]: 36 min
- Brain Concentration over time, sex-dependent difference (i.p. 5 mg/kg): F > M at 10, 30 min
- Plasma Concentration over time, sex-dependent difference (i.p. 5 mg/kg): F > M at 10, 30 min
- Brain Total exposure (AUC), sex-dependent difference (i.p. 5 mg/kg): F > M
- Plasma Total exposure (AUC), sex-dependent difference (i.p. 5 mg/kg): F > M

Structure (SMILES): N[C@@]1(c2ccccc2Cl)CCC[C@H](O)C1=O [(2R,6S)-HNK]
- Kp [1]: 0.7
- Kp [2]: 0.6
- half-life [3]: 24 min
- half-life [4]: 42 min
- half-life [6]: 54 min
- Brain Concentration over time, sex-dependent difference (i.p. 5 mg/kg): NS
- Plasma Concentration over time, sex-dependent difference (i.p. 5 mg/kg): main effect of sex, M > F
- Brain Total exposure (AUC), sex-dependent difference (i.p. 5 mg/kg): M > F
- Plasma Total exposure (AUC), sex-dependent difference (i.p. 5 mg/kg): M > F
- brain concentration at 4 h post-treatment (females, but not males, i.p. 5 mg/kg, LLOQ 5.0 ng/ml): below LLOQs
- peak and total brain levels, lower compared to equivalent dosing with (2R,6R)-HNK (male mice): two-fold

Structure (SMILES): N[C@]1(c2ccccc2Cl)CCC[C@@H](O)C1=O [(2S,6R)-HNK]
- Kp [1]: 1.4
- Kp [2]: 1.2
- half-life [6]: 42 min
- Brain Concentration over time, sex-dependent difference (i.p. 5 mg/kg): main effect of sex, F > M
- Plasma Concentration over time, sex-dependent difference (i.p. 5 mg/kg): NS
- Brain Total exposure (AUC), sex-dependent difference (i.p. 5 mg/kg): F > M
- Plasma Total exposure (AUC), sex-dependent difference (i.p. 5 mg/kg): F > M
- peak and total brain levels, lower compared to equivalent dosing with (2R,6R)-HNK (male mice): three-fold

Structure (SMILES): N[C@]1(c2ccccc2Cl)CCC[C@H](O)C1=O [(2S,6S)-HNK, (2S,6S)-hydroxynorketamine]
- Kp [1]: 1.2
- half-life [3]: 42 min
- half-life [4]: 42 min
- half-life [6]: 42 min
- Brain Concentration over time, sex-dependent difference (i.p. 5 mg/kg): F > M at 10, 30 min
- Plasma Concentration over time, sex-dependent difference (i.p. 5 mg/kg): main effect of sex, F > M
- Brain Total exposure (AUC), sex-dependent difference (i.p. 5 mg/kg): F > M
- Plasma Total exposure (AUC), sex-dependent difference (i.p. 5 mg/kg): F > M
- Cmax and AUC, fold greater than those of (2R,6R)-HNK [7]: 2-3 fold
- peak and total brain levels, fold greater than those of (2R,6R)-HNK [7]: 2-3 fold

Structure (SMILES): C[C@@H]1CC[C@@](N)(c2ccccc2Cl)C(=O)[C@@H]1O.Cl [(5R)-methyl-(2R,6R)-HNK, (2R,5R,6R)-2-amino-2-(2-chlorophenyl)-6-hydroxy-5-methylcyclohexan-1-one hydrochloride]
- Kp [1]: 0.4
- Kp [2]: 0.4
- Tmax (brain, both sexes, i.p. 5 mg/kg, read-out: Tmax in the brain (converted)): 10 min
- half-life [3]: 42 min
- half-life [4]: 48 min
- Tmax (plasma, both sexes, i.p. 5 mg/kg, read-out: Tmax in the plasma (converted)): 10 min
- half-life [5]: 48 min
- half-life [6]: 48 min
- Kp (both sexes, male and female mice, i.p. 5 mg/kg, read-out: brain to plasma AUC (exposure) ratio): 0.4
- Brain Concentration over time, sex-dependent difference (i.p. 5 mg/kg): NS
- Plasma Concentration over time, sex-dependent difference (i.p. 5 mg/kg): main effect of sex, M > F
- Brain Total exposure (AUC), sex-dependent difference (i.p. 5 mg/kg): M > F
- Plasma Total exposure (AUC), sex-dependent difference (i.p. 5 mg/kg): M > F
